{"source": "paper PMC7369637", "about": "“Inhibition of Resistance-Refractory P. falciparum Kinase PKG Delivers Prophylactic, Blood Stage, and Transmission-Blocking Antiplasmodial Activity” (Cell Chemical Biology, 2020)", "key": {"Pf ABS parasites": {"test_system": "Pf ABS parasites", "experiment": "Light microscopy of ABS development", "format": "cell-based, Plasmodium falciparum", "conditions": "ring-stage parasites exposed to 350 nM (approximately 3 × IC50)"}, "[1]": {"target": "T1, calcium-dependent protein kinase 1 (CDPK1) (PF3D7_0217500) (Plasmodium falciparum, UniProt P62344)", "T1 construct": "endogenous in cells; host or cells: P. falciparum asexual blood-stage parasites (trophozoite stage)", "T1 sequence (P62344 whole entry)": "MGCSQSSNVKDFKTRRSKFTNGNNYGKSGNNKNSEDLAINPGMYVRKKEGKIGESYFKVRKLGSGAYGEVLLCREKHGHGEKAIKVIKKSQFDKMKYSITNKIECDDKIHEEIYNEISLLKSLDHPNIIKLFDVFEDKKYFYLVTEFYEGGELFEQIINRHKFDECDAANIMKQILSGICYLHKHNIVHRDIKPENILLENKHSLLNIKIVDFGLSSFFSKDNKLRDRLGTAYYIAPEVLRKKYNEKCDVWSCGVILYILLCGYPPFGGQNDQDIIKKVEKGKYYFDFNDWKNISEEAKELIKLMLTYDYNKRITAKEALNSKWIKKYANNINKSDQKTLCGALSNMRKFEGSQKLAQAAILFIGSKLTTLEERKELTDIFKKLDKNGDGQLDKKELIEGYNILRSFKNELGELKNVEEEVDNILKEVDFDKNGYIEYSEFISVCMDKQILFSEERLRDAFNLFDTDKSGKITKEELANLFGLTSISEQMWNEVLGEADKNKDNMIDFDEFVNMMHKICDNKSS", "experiment": "Competitive chemoproteomics in Pf lysates (Kinobeads / bead-immobilized compound)", "format": "binding", "conditions": "for Kd: read-out: Kdapp, CDPK1", "procedure": "(§1) Pf protein extracts were prepared as described elsewhere ([Paquet et al., 2017]). Parasite cultures at the trophozoite stage were harvested, washed twice in RPMI 1640 medium (Gibco), and lysed by the addition of saponin to a final concentration of 0.1% for 5 min at room temperature. Free parasites were sedimented by centrifugation (3500 rpm for 10 min), washed three times with phosphate-buffered saline, and stored at −80°C. Parasites were resuspended in cell lysis buffer (50 mM tris-HCl (pH 7.5), 5% glycerol, 1.5 mM MgCl2, […], 1 mM […], 25 mM sodium fluoride, 0.8% NP-40, EDTA-free protease inhibitor cocktail tablets (Roche Diagnostics), and 1 mM DTT) and disrupted by sonication (Sonics Vibra-Cell) using two 30-s cycles on ice at half-amplitude. After centrifugation (140,000g for 1 h at 4°C), soluble proteins were recovered from the supernatants, and protein concentrations of each sample were estimated using the Lowry-based DC assay (Bio-Rad). Samples were stored at −80°C until use.\n(§2) Kinobeads were prepared by immobilizing Bis-(III) indolyl-maleimide, purvalanol B, staurosporine and CZC8004, and the analogs of PD173955, sunitinib and vandetanib on NHS-activated Sepharose 4 beads (Amersham) ([Bantscheff et al., 2007]). […] The chemoproteomic affinity-capturing experiments were performed as previously described ([Bantscheff et al., 2011]). Briefly, beads were washed and equilibrated in lysis buffer (50 mM Tris-HCl, pH 7.4, 0.4 % Igepal-CA630, 1.5 mM MgCl2, 5 % Glycerol, 150 mM NaCl, 25 mM NaF, 1 mM Na3VO4, 1 mM DTT, and one cOmplete EDTA-free protease inhibitor tablet (Roche) per 25 mL). The beads were incubated at 4°C for 1 h with either 0.1 ml (0.3 mg) Pf blood stage extract or 0.5 mL (2.5 mg) human cell/tissue protein extract (a mixture of HEK-293, K-562, Hep G2 , and placental cells), which was pre-incubated with compound or DMSO (vehicle control). 10 samples were measured in parallel (TMT 10-plex ([Werner et al., 2014])) to generate values for the affinity of the beads to the bound proteins (“depletion” values, 4 samples) and to generate IC50 values (6 samples) in a single experiment. Apparent dissociation constants were determined after accounting for protein depletion by the beads ([Bantscheff et al., 2011]). Beads were transferred to Filter plates (Durapore PVDF membrane, Merck Millipore), washed with lysis buffer, and eluted with SDS sample buffer.\n(§3) Proteins were digested according to a modified single pot solid-phase sample preparation (SP3) protocol ([Hughes et al., 2014]). Peptides were labeled with isobaric mass tags (Thermo Fisher Scientific, Waltham, MA) using 10-plex TMT reagents, enabling relative quantification of 10 conditions in a single experiment ([Werner et al., 2014]). The labeling reactions and LC-MS/MS measurements using Q Exactive Orbitrap or Orbitrap Fusion Lumos mass spectrometers (Thermo Fisher Scientific) were performed as described elsewhere ([Sridharan et al., 2019]). Mascot 2.4 (Matrix Science, Boston, MA) was used for protein identification by using a 10 parts per million mass tolerance for peptide precursors and 20 mD (HCD) mass tolerance for fragment ions. To create the fasta file for mascot searching, all proteins corresponding to the taxonomy ‘Plasmodium falciparum (isolate 3D7)’ were downloaded from Uniprot (release 20170621) and supplemented with common contaminant protein sequences of bovine serum albumin, porcine trypsin and mouse, rat, sheep and dog keratins. To assess the false discovery rate (FDR), “decoy” proteins (reverse of all protein sequences) were created and added to the database, resulting in a database containing a total of 14266 protein sequences, with 50% forward and 50% reverse. For peptide and protein identification of human proteins see ([Sridharan et al., 2019]). […]"}, "[2]": {"target": "putative amino acid transporter (AAT) (PF3D7_1231400) (Plasmodium falciparum, UniProt Q8I5A6)", "sequence (Q8I5A6 entry or part of it)": "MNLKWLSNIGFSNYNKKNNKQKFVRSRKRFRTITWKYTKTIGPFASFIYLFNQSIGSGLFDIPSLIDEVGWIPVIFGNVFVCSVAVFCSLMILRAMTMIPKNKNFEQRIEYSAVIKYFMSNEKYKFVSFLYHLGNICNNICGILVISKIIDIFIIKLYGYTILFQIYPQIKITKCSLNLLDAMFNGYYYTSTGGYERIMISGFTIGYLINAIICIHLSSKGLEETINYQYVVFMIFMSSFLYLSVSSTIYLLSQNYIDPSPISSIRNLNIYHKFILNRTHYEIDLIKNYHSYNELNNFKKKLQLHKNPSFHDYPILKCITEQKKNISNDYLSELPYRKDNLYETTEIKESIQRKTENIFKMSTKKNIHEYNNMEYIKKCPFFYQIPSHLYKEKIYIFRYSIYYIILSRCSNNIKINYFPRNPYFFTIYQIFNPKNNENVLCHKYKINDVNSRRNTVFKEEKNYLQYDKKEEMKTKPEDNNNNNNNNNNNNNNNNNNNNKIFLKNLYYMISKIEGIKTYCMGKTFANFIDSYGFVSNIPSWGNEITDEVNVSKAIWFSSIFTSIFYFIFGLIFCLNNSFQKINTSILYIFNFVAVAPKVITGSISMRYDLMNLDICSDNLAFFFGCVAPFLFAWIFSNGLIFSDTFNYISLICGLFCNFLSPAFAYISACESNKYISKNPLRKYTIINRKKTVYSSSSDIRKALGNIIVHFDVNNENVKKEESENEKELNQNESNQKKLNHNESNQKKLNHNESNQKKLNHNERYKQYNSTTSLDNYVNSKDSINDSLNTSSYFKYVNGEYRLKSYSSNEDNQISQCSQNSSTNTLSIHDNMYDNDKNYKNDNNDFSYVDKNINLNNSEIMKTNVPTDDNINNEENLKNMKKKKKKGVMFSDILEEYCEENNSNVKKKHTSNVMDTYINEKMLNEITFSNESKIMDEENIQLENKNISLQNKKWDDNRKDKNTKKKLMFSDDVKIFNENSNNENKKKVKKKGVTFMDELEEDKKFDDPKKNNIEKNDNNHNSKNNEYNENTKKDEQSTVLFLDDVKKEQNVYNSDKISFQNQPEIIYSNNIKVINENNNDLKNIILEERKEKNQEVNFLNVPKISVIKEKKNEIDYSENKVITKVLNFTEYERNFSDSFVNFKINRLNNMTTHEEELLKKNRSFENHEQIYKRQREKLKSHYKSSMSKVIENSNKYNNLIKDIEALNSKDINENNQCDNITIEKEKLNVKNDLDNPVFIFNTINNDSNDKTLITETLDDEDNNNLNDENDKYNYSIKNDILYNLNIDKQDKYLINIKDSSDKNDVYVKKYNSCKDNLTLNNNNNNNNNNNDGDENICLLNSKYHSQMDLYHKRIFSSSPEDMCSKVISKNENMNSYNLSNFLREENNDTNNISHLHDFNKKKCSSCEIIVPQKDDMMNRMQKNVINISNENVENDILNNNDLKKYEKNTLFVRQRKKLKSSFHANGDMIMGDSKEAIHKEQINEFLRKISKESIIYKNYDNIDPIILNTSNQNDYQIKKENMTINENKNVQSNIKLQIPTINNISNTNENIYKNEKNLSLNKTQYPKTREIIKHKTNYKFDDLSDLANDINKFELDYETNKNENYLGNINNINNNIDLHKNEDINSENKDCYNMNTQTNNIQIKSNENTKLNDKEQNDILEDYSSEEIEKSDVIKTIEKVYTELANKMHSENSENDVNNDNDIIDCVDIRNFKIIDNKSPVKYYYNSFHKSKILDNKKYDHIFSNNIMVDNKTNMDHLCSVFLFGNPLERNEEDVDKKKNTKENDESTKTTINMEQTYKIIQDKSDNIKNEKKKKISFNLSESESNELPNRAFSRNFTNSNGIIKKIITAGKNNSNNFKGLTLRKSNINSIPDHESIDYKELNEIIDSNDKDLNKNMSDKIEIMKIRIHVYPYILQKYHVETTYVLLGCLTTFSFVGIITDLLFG", "experiment": "Competitive chemoproteomics in Pf lysates (Kinobeads / bead-immobilized compound)", "format": "binding", "conditions": "lysates exposed to 40 μM of the same compound vs vehicle", "procedure": "as §1, §2, §3"}, "[3]": {"test_system": "Dd2-B2 and ed. Dd2-B2 TKL3KO parasites", "experiment": "In vitro selections for MMV030084 resistance", "format": "cell-based, Plasmodium falciparum", "conditions": "1 × 10^9 Dd2-B2 TKL3KO parasites, 1,100 nM", "procedure": "The resulting MMV030084-resistant parasites were cloned by limiting dilution ([Baker et al., 2017]) to obtain genetically homogenous cultures for further phenotyping and whole-genome sequencing. A second round of […]. […] Drug susceptibility of resistant lines was assessed using a 72 h ABS assay as described above, and a Mann Whitney U test was applied to assess statistically significant differences."}, "female gamete formation": {"test_system": "female gamete formation", "conditions": "ref Miguel-Blanco et al., 2017; cited from earlier work"}}, "note": "Read-outs that look alike come from different tables or passages of the source.", "data": [{"smiles": "CC(C)(CN)c1nc(-c2ccc(Cl)c(O)c2)c(-c2ccncc2)[nH]1", "note": "[MMV030084]", "values": [{"measurement": "ABS development by light microscopy", "setting": "Pf ABS parasites", "value": "halted at the schizont stage"}, {"measurement": "Kd", "setting": "[1]; '084-beads (bead-immobilized MMV030084)", "value": 220, "unit": "nM"}, {"measurement": "Kd", "setting": "[1]; Kinobeads", "value": 215, "unit": "nM"}, {"measurement": "Kd", "setting": "[1]; five independent experiments, lowest tested concentration 0.1 μM", "value": "< 100", "unit": "nM"}, {"measurement": "CDPK1 pull-down by bead-bound compound", "setting": "[1]; lysates exposed to 40 μM of the same compound vs vehicle", "value": "pulled down"}, {"measurement": "Kd", "setting": "[1]; two follow-up experiments with lower concentrations", "value": "215 to 220", "unit": "nM"}, {"measurement": "AAT pull-down by bead-bound compound", "setting": "[2]", "value": "pulled down"}, {"measurement": "Parasite recrudescence under continuous exposure", "setting": "[3]", "value": "did not result in parasite recrudescence"}, {"measurement": "Inhibition of female gamete formation", "setting": "female gamete formation", "value": "inhibitors of female gamete formation"}]}]}
